What was measured:
Type in all cases: in vivo
[1] = system: Mediterranean Fruitfly (Ceratitis capitata); test: Mediterranean fruitfly microtiter plate diet test; conditions: 120 h
Protocol: For evaluating control of Mediterranean fruitfly (Ceratitis capitata) the test unit consisted of microtiter plates containing an insect diet and 50-80 C. capitata eggs. The compounds were formulated using a solution containing 75% v/v water and 25% v/v DMSO. Different concentrations of formulated compounds were sprayed onto the insect diet at 5 μl, using a custom built micro atomizer, at two replications.
After application, microtiter plates were incubated at about 28±1° C. and about 80±5% relative humidity for 5 days. Egg and larval mortality was then visually assessed.

[2] = system: Orchid Thrips (Dichromothrips corbetti); test: Orchid thrips floral-immersion test; conditions: 96 h
Protocol: Dichromothrips corbetti adults used for bioassay are obtained from a colony maintained continuously under laboratory conditions. For testing purposes, the test compound is diluted to a concentration of 300 ppm (wt compound: vol diluent) in a 1:1 mixture of acetone:water (vol:vol), plus 0.01% vol/vol Kinetic® surfactant.
Thrips potency of each compound is evaluated by using a floral-immersion technique. Plastic petri dishes are used as test arenas. All petals of individual, intact orchid flowers are dipped into treatment solution and allowed to dry. Treated flowers are placed into individual petri dishes along with 10-15 adult thrips. The petri dishes are then covered with lids. All test arenas are held under continuous light and a temperature of about 28° C. for duration of the assay. After 4 days, the numbers of live thrips are counted on each flower, and along inner walls of each petri dish. The level of thrips mortality is extrapolated from pre-treatment thrips numbers.

[3] = system: Diamond Back Moth (Plutella xylostella); test: Diamond back moth leaf dip test; conditions: foliar, 120 h
Protocol: (§1) The active compound is dissolved at the desired concentration in a mixture of 1:1 (vol:vol) distilled water:acteon. The test solution is prepared at the day of use and in general at concentrations of […].
Leaves of Chinese cabbage were dipped in test solution and air-dried. Treated leaves were placed in petri dished lined with moist filter paper. Mortality was recorded 24, 72, and 120 hours after treatment.

[4] = system: Boll Weevil (Anthonomus grandis); test: Boll weevil microtiter plate diet test; conditions: 120 h
Protocol: For evaluating control of boll weevil (Anthonomus grandis) the test unit consisted of 24-well-microtiter plates containing an insect diet and 20-30 A. grandis eggs.
The compounds were formulated using a solution containing 75% v/v water and 25% v/v DMSO. Different concentrations of formulated compounds were sprayed onto the insect diet at 20 μl, using a custom built micro atomizer, at two replications. After application, microtiter plates were incubated at about 23±1° C. and about 50±5% relative humidity for 5 days. Egg and larval mortality was then visually assessed.

[5] = system: Tobacco Budworm (Heliothis virescens); test: Tobacco budworm cotton plant foliar spray test; conditions: 96 h
Protocol: (§2) The active compounds were formulated in cyclohexanone as a 10,000 ppm solution supplied in tubes. The tubes were inserted into an automated electrostatic sprayer equipped with an atomizing nozzle and they served as stock solutions for which lower dilutions were made in 50% acetone:50% water (v/v). A nonionic surfactant (Kinetic®) was included in the solution at a volume of 0.01% (v/v).
Cotton plants were grown 2 plants to a pot and selected for treatment at the cotyledon stage. Test solutions were sprayed onto the foliage by an automated electrostatic plant sprayer equipped with an atomizing spray nozzle. The plants were dried in the sprayer fume hood and then removed from the sprayer. Each pot was placed into perforated plastic bags with a zip closure. About 10 to 11 budworm larvae were placed into the bag and the bags zipped closed. Test plants were maintained in a growth room at about 25° C. and about 20-40% relative humidity for 4 days, avoiding direct exposure to fluorescent light (24 hour photoperiod) to prevent trapping of heat inside the bags. Mortality and reduced feeding were assessed 4 days after treatment, compared to untreated control plants.

[6] = system: Cowpea Aphid (Aphis craccivora); test: Cowpea aphid spray test on potted cowpea plants; conditions: population reduction assessed after 24, 72, and 120 hours, in comparison with untreated controls
Protocol: as §1
Potted cowpea plants colonized with approximately 100-150 aphids of various stages were sprayed after the pest population has been recorded. Population reduction was assessed after 24, 72, and 120 hours.

[7] = system: Southern Armyworm (Spodoptera eridania); test: Southern armyworm lima bean foliar spray test; conditions: 96 h
Protocol: as §2
Lima bean plants (variety Sieva) were grown 2 plants to a pot and selected for treatment at the 1st true leaf stage. Test solutions were sprayed onto the foliage by an automated electrostatic plant sprayer equipped with an atomizing spray nozzle. The plants were dried in the sprayer fume hood and then removed from the sprayer. Each pot was placed into perforated plastic bags with a zip closure. About 10 to 11 armyworm larvae were placed into the bag and the bags zipped closed. Test plants were maintained in a growth room at about 25° C. and about 20-40% relative humidity for 4 days, avoiding direct exposure to fluorescent light (24 hour photoperiod) to prevent trapping of heat inside the bags. Mortality and reduced feeding were assessed 4 days after treatment, compared to untreated control plants.

[8] = system: Vetch Aphid (Megoura viciae); test: Vetch aphid leaf disk microtiter plate test; conditions: foliar, 120 h
Protocol: For evaluating control of vetch aphid (Megoura viciae) through contact or systemic means the test unit consisted of 24-well-microtiter plates containing broad bean leaf disks.
The compounds were formulated using a solution containing 75% v/v water and 25% v/v DMSO. Different concentrations of formulated compounds were sprayed onto the leaf disks at 2.5 μl, using a custom built micro atomizer, at two replications. After application, the leaf disks were air-dried and 5-8 adult aphids placed on the leaf disks inside the microtiter plate wells. The aphids were then allowed to suck on the treated leaf disks and incubated at about 23±1° C. and about 50±5% relative humidity for 5 days. Aphid mortality and fecundity was then visually assessed.

[9] = system: Cotton Aphid (Aphis gossypii); test: Cotton aphid foliar spray test; conditions: 120 h, after 5 days, in comparison with untreated controls
Description: as §2
Cotton plants at the cotyledon stage were infested with aphids prior to treatment by placing a heavily infested leaf from the main aphid colony on top of each cotyledon. Aphids were allowed to transfer overnight to accomplish an infestation of 80-100 aphids per plant and the host leaf was removed. The infested plants were then sprayed by an automated electrostatic plant sprayer equipped with an atomizing spray nozzle. The plants were dried in the sprayer fume hood, removed from the sprayer, and then maintained in a growth room under fluorescent lighting in a 24-hr photoperiod at 25° C. and 20-40% relative humidity. Aphid mortality on the treated plants, relative to mortality on untreated control plants, was determined after 5 days.

CC(=O)N(Cc1ccccn1)C(C(=O)C=NO)c1ccc(C2=NOC(c3cc(Cl)cc(Cl)c3)(C(F)(F)F)C2)cc1C (centres unmarked) [Compound 1-10, N-{{4-[5-(3,5-dichloro-phenyl)-5-trifluoromethyl-4,5-dihydro-isoxazol-3-yl]-2-methyl-phenyl}-hydroxyiminoacetyl-methyl}-N-pyridin-2-ylmethyl-acetamide]
≥ 75%: mortality at 2500 ppm [1] | mortality at 300 ppm [2] | mortality at 300 ppm [3] | mortality at 2500 ppm [4] | mortality at 2500 ppm [5] | mortality at 300 ppm [6] | mortality at 300 ppm [7] | mortality at 2500 ppm [8]

Cc1nc(-c2ccc(C3=NOC(c4cc(Cl)cc(Cl)c4)(C(F)(F)F)C3)cc2CC(F)(F)F)no1 (centres unmarked) [Compound 9-4, 3-{4-[5-(3,5-Dichloro-phenyl)-5-trifluoromethyl-4,5-dihydro-isoxazol-3-yl]-2-trifluoroethyl-phenyl}-5-methyl-[1,2,4]oxadiazole]
≥ 75%: mortality at 2500 ppm [1] | mortality at 2500 ppm [4] | mortality at 2500 ppm [5] | mortality at 300 ppm [7]

Cc1cc(C2=NOC(c3cc(Cl)cc(Cl)c3)(C(F)(F)F)C2)ccc1C(=NCC(F)(F)F)NC(=O)CO (centres unmarked) [Compound 1-7, 4-[5-(3,5-Dichloro-phenyl)-5-trifluoromethyl-4,5-dihydro-isoxazol-3-yl]-N-hydroxyacetyl-2-methyl-N′-(2,2,2-trifluoro-ethyl)-benzamidine]
≥ 75%: mortality at 2500 ppm [1] | mortality at 300 ppm [2] | mortality at 300 ppm [3] | mortality at 2500 ppm [4] | mortality at 2500 ppm [5] | mortality at 300 ppm [7]

Cc1cc(C2=NOC(c3cc(Cl)cc(Cl)c3)(C(F)(F)F)C2)ccc1C(=NCc1ccccn1)NO (centres unmarked) [Compound 1-8, 4-[5-(3,5-Dichloro-phenyl)-5-trifluoromethyl-4,5-dihydro-isoxazol-3-yl]-N-hydroxy-2-methyl-N′-pyridin-2-ylmethyl-benzamidine]
≥ 75%: mortality at 2500 ppm [1] | mortality at 300 ppm [2] | mortality at 300 ppm [3] | mortality at 2500 ppm [4] | mortality at 2500 ppm [5] | mortality at 300 ppm [6] | mortality at 300 ppm [9] | mortality at 300 ppm [7] | mortality at 2500 ppm [8]

Cc1nc(-c2ccc(C3=NOC(c4cc(Cl)cc(Cl)c4)(C(F)(F)F)C3)cc2C)no1 (centres unmarked) [Compound 9-2, 3-{4-[5-(3,5-Dichloro-phenyl)-5-trifluoromethyl-4,5-dihydro-isoxazol-3-yl]-2-methyl-phenyl}-5-methyl-[1,2,4]oxadiazole]
≥ 75%: mortality at 2500 ppm [1] | mortality at 300 ppm [3] | mortality at 2500 ppm [4] | mortality at 2500 ppm [5] | mortality at 300 ppm [7]
